From the supplement of paper PMC13207355

Tests used:
Conditions in all cases: exposure time: 72 h
E13 [1] = patient-derived glioblastoma stem cells of classical subtype; experiment: surviving fraction (nuclei count normalised to DMSO); higher = more cells surviving (less toxic)
E21 [2] = patient-derived glioblastoma stem cells of mesenchymal subtype; experiment: as above
E28 [3] = patient-derived glioblastoma stem cells of classical subtype; experiment: as above
E34 [4] = patient-derived glioblastoma stem cells of proneural subtype; experiment: as above
E57 [5] = patient-derived glioblastoma stem cells of mesenchymal subtype; experiment: as above
FT3469 [6] = normal neural stem cell line; experiment: as above
E13 [7] = experiment: phenotypic distance (Euclidean, principal components) from DMSO controls (arbitrary units); higher = stronger morphological change
E21 [8] = experiment: as above
E28 [9] = experiment: as above
E34 [10] = experiment: as above
E57 [11] = experiment: as above
FT3469 [12] = experiment: as above
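Wherever phenotypic distance (Euclidean, principal components) from DMSO controls is given: cell Painting imaging in 384-well plates, CellProfiler features reduced to at least 20 principal components, Euclidean distance versus same-plate DMSO vehicle wells (0.1% v/v), median over six images per well.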
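Wherever surviving fraction (nuclei count normalised to DMSO) is given: nuclei counted by high-content imaging of Hoechst-stained cells in laminin-coated 384-well plates, relative to 0.1% DMSO vehicle wells, with staurosporine as cell-death control.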

Cc1cc(C)c(CN2CCc3c(Cl)cc(-c4c(C)noc4C)c(Cl)c3C2=O)c(=O)[nH]1
Conditions	phenotypic distance	surviving fraction
E13 [1], 4.1 nM	–	1.06
E13 [1], 4.11523 nM	–	0.856
E13 [1], 12.3 nM	–	1.14
E13 [1], 12.34567901 nM	–	0.965
E13 [1], 37 nM	–	0.832
E13 [1], 37.037 nM	–	1
E13 [1], 111.1 nM	–	1.12
E13 [1], 111.1111111 nM	–	1.02
E13 [1], 333.3 nM	–	0.891
E13 [1], 333.333 nM	–	1.06
E13 [1], 1000 nM	–	1.01
E13 [1], 3000 nM	–	0.89
E13 [7], 4.1 nM	0.55	–
E13 [7], 4.11523 nM	0.762	–
E13 [7], 12.3 nM	0.528	–
E13 [7], 12.34567901 nM	0.464	–
E13 [7], 37 nM	0.636	–
E13 [7], 37.037 nM	0.555	–
E13 [7], 111.1 nM	0.599	–
E13 [7], 111.1111111 nM	0.586	–
E13 [7], 333.3 nM	0.546	–
E13 [7], 333.333 nM	2.27	–
E13 [7], 1000 nM	0.5296	–
E13 [7], 3000 nM	1.67	–
E21 [2], 4.1 nM	–	0.906
E21 [2], 4.11523 nM	–	0.889
E21 [2], 12.3 nM	–	1.06
E21 [2], 12.34567901 nM	–	0.956
E21 [2], 37 nM	–	0.952
E21 [2], 37.037 nM	–	0.858
E21 [2], 111.1 nM	–	1.03
E21 [2], 111.1111111 nM	–	1.03
E21 [2], 333.3 nM	–	0.966
E21 [2], 333.333 nM	–	0.985
E21 [2], 1000 nM	–	0.973
E21 [2], 3000 nM	–	0.984
E21 [8], 4.1 nM	0.846	–
E21 [8], 4.11523 nM	0.624	–
E21 [8], 12.3 nM	0.502	–
E21 [8], 12.34567901 nM	0.663	–
E21 [8], 37 nM	0.782	–
E21 [8], 37.037 nM	0.448	–
E21 [8], 111.1 nM	0.333	–
E21 [8], 111.1111111 nM	2.67	–
E21 [8], 333.3 nM	1.29	–
E21 [8], 333.333 nM	0.358	–
E21 [8], 1000 nM	0.536	–
E21 [8], 3000 nM	0.603	–
E28 [3], 4.1 nM	–	0.912
E28 [3], 4.11523 nM	–	1.06
E28 [3], 12.3 nM	–	1.07
E28 [3], 12.34567901 nM	–	0.996
E28 [3], 37 nM	–	0.901
E28 [3], 37.037 nM	–	1.05
E28 [3], 111.1 nM	–	0.947
E28 [3], 111.1111111 nM	–	0.947
E28 [3], 333.3 nM	–	0.95
E28 [3], 333.333 nM	–	1.17
E28 [3], 1000 nM	–	0.98
E28 [3], 3000 nM	–	0.991
E28 [9], 4.1 nM	0.563	–
E28 [9], 4.11523 nM	0.484	–
E28 [9], 12.3 nM	0.447	–
E28 [9], 12.34567901 nM	0.539	–
E28 [9], 37 nM	0.798	–
E28 [9], 37.037 nM	0.532	–
E28 [9], 111.1 nM	0.371	–
E28 [9], 111.1111111 nM	2.05	–
E28 [9], 333.3 nM	0.616	–
E28 [9], 333.333 nM	0.607	–
E28 [9], 1000 nM	0.701	–
E28 [9], 3000 nM	0.617	–
E34 [4], 4.1 nM	–	0.921
E34 [4], 4.11523 nM	–	0.993
E34 [4], 12.3 nM	–	1.13
E34 [4], 12.34567901 nM	–	0.993
E34 [4], 37 nM	–	0.811
E34 [4], 37.037 nM	–	0.929
E34 [4], 111.1 nM	–	1.11
E34 [4], 111.1111111 nM	–	0.938
E34 [4], 333.3 nM	–	0.85
E34 [4], 333.333 nM	–	1.01
E34 [4], 1000 nM	–	0.861
E34 [4], 3000 nM	–	0.96
E34 [10], 4.1 nM	0.88	–
E34 [10], 4.11523 nM	0.409	–
E34 [10], 12.3 nM	0.682	–
E34 [10], 12.34567901 nM	0.739	–
E34 [10], 37 nM	1.1	–
E34 [10], 37.037 nM	0.359	–
E34 [10], 111.1 nM	0.667	–
E34 [10], 111.1111111 nM	0.478	–
E34 [10], 333.3 nM	1.23	–
E34 [10], 333.333 nM	0.552	–
E34 [10], 1000 nM	0.66	–
E34 [10], 3000 nM	1.1	–
E57 [5], 4.1 nM	–	0.932
E57 [5], 4.11523 nM	–	0.986
E57 [5], 12.3 nM	–	0.955
E57 [5], 12.34567901 nM	–	0.938
E57 [5], 37 nM	–	1.02
E57 [5], 37.037 nM	–	1.04
E57 [5], 111.1 nM	–	0.932
E57 [5], 111.1111111 nM	–	1.01
E57 [5], 333.3 nM	–	1
E57 [5], 333.333 nM	–	1.01
E57 [5], 1000 nM	–	1.02
E57 [5], 3000 nM	–	1.06
E57 [11], 4.1 nM	0.289	–
E57 [11], 4.11523 nM	0.517	–
E57 [11], 12.3 nM	0.432	–
E57 [11], 12.34567901 nM	0.412	–
E57 [11], 37 nM	0.351	–
E57 [11], 37.037 nM	0.334	–
E57 [11], 111.1 nM	0.307	–
E57 [11], 111.1111111 nM	0.418	–
E57 [11], 333.3 nM	0.28	–
E57 [11], 333.333 nM	0.343	–
E57 [11], 1000 nM	0.373	–
E57 [11], 3000 nM	0.511	–
FT3469 [6], 4.1 nM	–	0.866
FT3469 [6], 4.11523 nM	–	0.918
FT3469 [6], 12.3 nM	–	0.934
FT3469 [6], 12.34567901 nM	–	0.961
FT3469 [6], 37 nM	–	0.862
FT3469 [6], 37.037 nM	–	0.857
FT3469 [6], 111.1 nM	–	0.892
FT3469 [6], 111.1111111 nM	–	1.05
FT3469 [6], 333.3 nM	–	0.977
FT3469 [6], 333.333 nM	–	0.9
FT3469 [6], 1000 nM	–	0.914
FT3469 [6], 3000 nM	–	0.971
FT3469 [12], 4.1 nM	0.799	–
FT3469 [12], 4.11523 nM	0.574	–
FT3469 [12], 12.3 nM	0.456	–
FT3469 [12], 12.34567901 nM	0.531	–
FT3469 [12], 37 nM	3.66	–
FT3469 [12], 37.037 nM	0.66	–
FT3469 [12], 111.1 nM	0.618	–
FT3469 [12], 111.1111111 nM	0.467	–
FT3469 [12], 333.3 nM	0.925	–
FT3469 [12], 333.333 nM	1.74	–
FT3469 [12], 1000 nM	0.694	–
FT3469 [12], 3000 nM	0.451	–
